Results reported in ChEMBL document CHEMBL1125402, “Conformational effects on the activity of drugs. 13. A revision of previously proposed models for the activation of alpha- and beta-adrenergic receptors” (J Med Chem, 1992).

Key:
[1] = biological target: T1, Adrenergic receptor alpha-1 (Rattus norvegicus, UniProt P15823+P23944+P43140); assay: Binding affinity towards Alpha-1 adrenergic receptor of rat brain
T1 sequence (P15823 whole entry): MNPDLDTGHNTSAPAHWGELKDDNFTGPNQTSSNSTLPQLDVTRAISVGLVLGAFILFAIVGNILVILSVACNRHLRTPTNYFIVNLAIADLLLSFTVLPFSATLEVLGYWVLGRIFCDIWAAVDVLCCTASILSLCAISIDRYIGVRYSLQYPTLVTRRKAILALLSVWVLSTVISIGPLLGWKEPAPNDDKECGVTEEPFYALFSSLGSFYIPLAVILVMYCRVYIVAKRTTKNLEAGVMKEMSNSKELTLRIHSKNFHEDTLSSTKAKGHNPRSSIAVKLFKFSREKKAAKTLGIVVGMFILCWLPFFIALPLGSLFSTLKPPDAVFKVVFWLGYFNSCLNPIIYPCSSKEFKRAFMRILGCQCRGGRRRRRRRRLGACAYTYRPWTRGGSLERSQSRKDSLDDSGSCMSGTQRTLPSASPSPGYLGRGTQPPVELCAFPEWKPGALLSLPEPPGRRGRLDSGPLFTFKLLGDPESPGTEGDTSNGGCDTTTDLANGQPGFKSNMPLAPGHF
T1 sequence (P23944 whole entry): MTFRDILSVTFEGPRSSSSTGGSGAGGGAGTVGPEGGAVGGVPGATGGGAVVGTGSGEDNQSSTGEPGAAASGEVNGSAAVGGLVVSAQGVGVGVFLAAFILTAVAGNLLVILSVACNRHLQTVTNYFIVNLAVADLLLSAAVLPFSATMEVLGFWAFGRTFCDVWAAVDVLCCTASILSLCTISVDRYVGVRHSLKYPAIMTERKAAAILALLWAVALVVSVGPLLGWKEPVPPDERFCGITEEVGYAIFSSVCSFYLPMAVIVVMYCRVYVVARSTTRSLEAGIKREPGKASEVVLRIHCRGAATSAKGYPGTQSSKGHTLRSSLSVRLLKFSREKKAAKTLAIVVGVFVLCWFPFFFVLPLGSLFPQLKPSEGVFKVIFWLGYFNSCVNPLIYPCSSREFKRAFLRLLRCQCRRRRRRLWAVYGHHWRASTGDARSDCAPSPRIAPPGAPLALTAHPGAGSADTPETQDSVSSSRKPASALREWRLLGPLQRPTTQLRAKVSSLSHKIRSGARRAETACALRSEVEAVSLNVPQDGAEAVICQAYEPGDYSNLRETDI
T1 sequence (P43140 whole entry): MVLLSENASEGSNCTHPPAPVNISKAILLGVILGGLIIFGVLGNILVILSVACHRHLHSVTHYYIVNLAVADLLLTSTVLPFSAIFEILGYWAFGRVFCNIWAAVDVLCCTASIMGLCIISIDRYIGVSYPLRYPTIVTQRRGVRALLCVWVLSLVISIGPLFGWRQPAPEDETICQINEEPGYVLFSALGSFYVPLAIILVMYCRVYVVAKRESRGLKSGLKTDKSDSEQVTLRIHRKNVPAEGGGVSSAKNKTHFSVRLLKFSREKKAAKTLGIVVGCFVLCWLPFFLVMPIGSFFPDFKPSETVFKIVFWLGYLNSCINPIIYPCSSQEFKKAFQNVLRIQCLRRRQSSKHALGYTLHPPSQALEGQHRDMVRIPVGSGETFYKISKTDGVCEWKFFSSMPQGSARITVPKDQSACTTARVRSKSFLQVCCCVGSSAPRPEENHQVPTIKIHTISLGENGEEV

[2] = biological target: Beta-2 adrenergic receptor (Cavia porcellus) (UniProt Q8K4Z4)
Description: Compound was evaluated for beta adrenoceptor agonistic activity towards Beta-2 adrenergic receptor of isolated guinea pig tracheal strip (exp 2)

[3] = biological target: Beta-1 adrenergic receptor (Rattus norvegicus, UniProt P18090)
Description: Compound was evaluated for beta adrenergic binding affinity towards Beta-1 adrenergic receptor of rat brain

[4] = biological target: T2, Adrenergic receptor alpha-2 (Homo sapiens) (UniProt P08913+P18825+P18089); assay: Compound was evaluated for alpha adrenoceptor agonistic activity towards alpha-2 adrenergic receptor of isolated guinea pig ileum; format: functional, tissue-based; conditions: Cavia porcellus, target entry is the homologue from another species
[5] = biological target: Beta-1 adrenergic receptor (Cavia porcellus) (UniProt B0FL73); assay: Intrinsic activity was expressed as the ratio between maximal response elicited by compound and that elicited by full agonist ISO towards beta 1 receptor of isolated guinea pig atria; format: functional
[6] = biological target: Beta-2 adrenergic receptor (Cavia porcellus) (UniProt Q8K4Z4); remark: listed apart in the source
Description: Compound was evaluated for beta adrenoceptor agonistic activity towards Beta-2 adrenergic receptor of isolated guinea pig tracheal strip (exp 1)

[7] = biological target: T2, Adrenergic receptor alpha-2 (Homo sapiens); assay: Intrinsic activity was expressed as the ratio between maximal response elicited by compound and that elicited by full agonist NE towards alpha-2 adrenergic receptor of isolated guinea pig ileum; format: functional, tissue-based; conditions: Cavia porcellus
[8] = Compound was evaluated for Alpha-1 adrenergic receptor agonistic activity towards alpha 1 receptor of isolated rabbit aortic strips; format: functional, Oryctolagus cuniculus
[9] = biological target: Beta-1 adrenergic receptor (Cavia porcellus) (UniProt B0FL73)
Description: Compound was evaluated for beta adrenoceptor agonistic activity towards Beta-1 adrenergic receptor of isolated guinea pig atria (exp 2)

[10] = biological target: Beta-1 adrenergic receptor (Cavia porcellus) (UniProt B0FL73); assay: Compound was evaluated for beta adrenoceptor agonistic activity towards Beta-1 adrenergic receptor of isolated guinea pig atria (exp 1); format: functional
[11] = biological target: T3, Adrenergic receptor alpha-2 (Rattus norvegicus, UniProt P22086+P19328+P22909); assay: Binding affinity towards alpha-2 adrenergic receptor of rat brain
T3 sequence (P22086 whole entry): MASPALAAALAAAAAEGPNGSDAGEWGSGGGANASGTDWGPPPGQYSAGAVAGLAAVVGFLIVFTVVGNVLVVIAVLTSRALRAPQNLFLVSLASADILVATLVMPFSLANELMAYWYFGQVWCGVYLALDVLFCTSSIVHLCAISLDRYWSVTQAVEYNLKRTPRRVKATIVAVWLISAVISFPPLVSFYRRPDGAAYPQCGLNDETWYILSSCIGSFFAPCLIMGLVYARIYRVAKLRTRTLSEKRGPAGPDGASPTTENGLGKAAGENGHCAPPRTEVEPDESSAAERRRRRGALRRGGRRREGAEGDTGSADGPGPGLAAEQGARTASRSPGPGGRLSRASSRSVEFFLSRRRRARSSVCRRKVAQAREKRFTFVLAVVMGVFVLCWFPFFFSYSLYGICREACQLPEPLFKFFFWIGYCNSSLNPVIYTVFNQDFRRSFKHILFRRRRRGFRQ
T3 sequence (P19328 whole entry): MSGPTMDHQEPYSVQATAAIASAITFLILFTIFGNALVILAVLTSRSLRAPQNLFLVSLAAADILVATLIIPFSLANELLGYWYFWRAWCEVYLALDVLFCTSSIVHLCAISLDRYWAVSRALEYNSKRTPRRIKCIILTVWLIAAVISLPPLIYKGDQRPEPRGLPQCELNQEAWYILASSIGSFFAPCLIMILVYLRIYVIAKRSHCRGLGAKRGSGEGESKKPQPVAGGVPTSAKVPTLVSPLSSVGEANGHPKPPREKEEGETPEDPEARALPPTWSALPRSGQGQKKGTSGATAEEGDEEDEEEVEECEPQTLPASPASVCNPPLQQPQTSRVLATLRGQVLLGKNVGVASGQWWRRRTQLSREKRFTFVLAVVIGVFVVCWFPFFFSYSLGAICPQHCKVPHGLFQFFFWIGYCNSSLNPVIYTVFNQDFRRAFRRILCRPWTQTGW
T3 sequence (P22909 whole entry): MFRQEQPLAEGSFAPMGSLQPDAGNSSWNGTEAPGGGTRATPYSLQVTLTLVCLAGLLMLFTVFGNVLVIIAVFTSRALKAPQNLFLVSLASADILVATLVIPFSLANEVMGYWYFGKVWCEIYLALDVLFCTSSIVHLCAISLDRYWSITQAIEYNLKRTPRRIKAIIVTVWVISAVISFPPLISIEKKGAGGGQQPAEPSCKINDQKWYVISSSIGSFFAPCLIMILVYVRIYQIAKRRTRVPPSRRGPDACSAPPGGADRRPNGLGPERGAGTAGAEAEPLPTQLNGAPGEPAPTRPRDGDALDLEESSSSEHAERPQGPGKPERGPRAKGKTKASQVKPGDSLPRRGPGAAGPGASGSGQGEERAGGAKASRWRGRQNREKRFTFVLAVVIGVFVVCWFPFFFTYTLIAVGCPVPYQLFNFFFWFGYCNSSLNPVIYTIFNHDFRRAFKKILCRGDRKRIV

[12] = biological target: Beta-2 adrenergic receptor (Bos taurus, UniProt Q28044); assay: Compound was evaluated for beta adrenergic binding affinity towards Beta-2 adrenergic receptor of bovine lung
Sequence of Beta-2 adrenergic receptor (Q28044 whole entry): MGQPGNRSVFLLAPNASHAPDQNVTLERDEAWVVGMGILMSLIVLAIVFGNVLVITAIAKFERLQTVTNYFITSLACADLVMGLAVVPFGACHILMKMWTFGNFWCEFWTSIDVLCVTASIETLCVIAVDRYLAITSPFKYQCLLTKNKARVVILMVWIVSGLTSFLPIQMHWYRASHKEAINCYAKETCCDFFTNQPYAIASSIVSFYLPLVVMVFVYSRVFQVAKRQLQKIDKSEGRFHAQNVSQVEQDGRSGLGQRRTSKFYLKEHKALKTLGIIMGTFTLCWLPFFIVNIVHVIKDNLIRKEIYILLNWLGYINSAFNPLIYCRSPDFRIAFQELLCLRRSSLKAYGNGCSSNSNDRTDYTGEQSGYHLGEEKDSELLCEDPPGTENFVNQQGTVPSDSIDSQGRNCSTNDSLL

Sequence of Beta-1 adrenergic receptor (Cavia porcellus) (B0FL73 1-467): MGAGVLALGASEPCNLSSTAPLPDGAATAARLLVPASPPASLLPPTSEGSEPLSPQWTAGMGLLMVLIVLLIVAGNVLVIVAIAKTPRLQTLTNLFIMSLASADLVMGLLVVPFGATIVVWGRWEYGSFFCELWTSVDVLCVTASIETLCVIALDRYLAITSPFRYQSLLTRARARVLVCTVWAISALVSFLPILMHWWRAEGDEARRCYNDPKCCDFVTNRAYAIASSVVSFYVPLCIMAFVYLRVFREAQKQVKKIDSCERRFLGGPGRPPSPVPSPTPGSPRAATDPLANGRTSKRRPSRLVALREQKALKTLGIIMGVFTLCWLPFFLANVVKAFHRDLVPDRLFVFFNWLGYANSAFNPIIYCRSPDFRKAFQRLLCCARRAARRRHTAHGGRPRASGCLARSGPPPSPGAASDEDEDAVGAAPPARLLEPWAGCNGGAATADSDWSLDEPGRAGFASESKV
Sequence of Beta-2 adrenergic receptor (Cavia porcellus) (Q8K4Z4 whole entry, looked up): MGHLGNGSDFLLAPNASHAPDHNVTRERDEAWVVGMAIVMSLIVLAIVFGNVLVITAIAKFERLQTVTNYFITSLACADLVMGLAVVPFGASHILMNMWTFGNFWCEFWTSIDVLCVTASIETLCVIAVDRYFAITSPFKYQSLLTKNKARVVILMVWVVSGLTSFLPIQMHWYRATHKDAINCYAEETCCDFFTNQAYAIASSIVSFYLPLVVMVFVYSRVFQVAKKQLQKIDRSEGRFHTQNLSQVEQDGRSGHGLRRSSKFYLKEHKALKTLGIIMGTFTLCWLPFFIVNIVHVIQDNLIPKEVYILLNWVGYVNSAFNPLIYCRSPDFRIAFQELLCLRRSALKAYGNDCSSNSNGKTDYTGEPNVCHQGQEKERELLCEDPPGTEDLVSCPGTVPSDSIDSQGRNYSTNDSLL
Sequence of Beta-1 adrenergic receptor (P18090 whole entry): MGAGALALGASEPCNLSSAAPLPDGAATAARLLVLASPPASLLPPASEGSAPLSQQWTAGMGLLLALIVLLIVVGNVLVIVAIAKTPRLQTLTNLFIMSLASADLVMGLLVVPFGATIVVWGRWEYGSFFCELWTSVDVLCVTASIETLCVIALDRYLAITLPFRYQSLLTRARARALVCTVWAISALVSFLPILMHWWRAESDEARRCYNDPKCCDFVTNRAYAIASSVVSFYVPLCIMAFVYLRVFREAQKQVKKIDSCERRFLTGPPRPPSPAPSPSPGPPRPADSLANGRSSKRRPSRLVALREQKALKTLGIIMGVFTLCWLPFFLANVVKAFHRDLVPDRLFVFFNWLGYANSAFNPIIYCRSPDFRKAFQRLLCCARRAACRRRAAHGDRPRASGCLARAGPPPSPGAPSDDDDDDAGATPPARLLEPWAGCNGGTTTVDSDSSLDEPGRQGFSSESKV

Question: With `CC(C)N[C@@H]1CCc2c(ccc(O)c2O)[C@H]1O` as the molecule, how does the Ki [1] read?
Answer: The Ki was over 100000 nM.

Question: What about the pD2 [2] of the same molecule?
Answer: The pD2 was 8.41.

Question: And the Ki [3]?
Answer: Its Ki is 760 nM.

Question: What about the pD2 [4] of the same molecule?
Answer: The pD2 was 5.6.

Question: And the Intrinsic activity [5]?
Answer: Its Intrinsic activity is 1.

Question: And the pD2 [6]?
Answer: Its pD2 is 8.06.

Question: And the Intrinsic activity [7]?
Answer: The Intrinsic activity was 0.72.

Question: What about the pD2 [8] of the same molecule?
Answer: Its pD2 is under 3.5.

Question: And the pD2 [9]?
Answer: Its pD2 is 7.56.

Question: What about the pD2 [10] of the same molecule?
Answer: Its pD2 is 6.72.

Question: And the Ki [11]?
Answer: The Ki was 5800 nM.

Question: And the Ki [12]?
Answer: Its Ki is 62 nM.
